Data on seven compounds can be found in patent US12365656B2, “Oxazolidinone compounds and methods of use thereof as antibacterial agents” (priority 2019, dated 2025).

What all share (assay type): cell-based
Experiment [1] deals with mitochondrial protein synthesis in HepG2 cells. Put plainly: Mitochondrial protein synthesis assay. As to conditions: Homo sapiens, 96 h, 4 days, COX-1 relative to SDH-A / Janus Green, In Cell ELISA, read-out: MPS IC50. On the technique in general: In an ELISA, binding on a coated surface is turned into a signal by an enzyme label.
Experiment [2] deals with Mycobacterium tuberculosis (Mtb-GFP; H37Rv pMSP12::GFP). Put plainly: microbe, parasite or virus in culture. As to conditions: Mycobacterium tuberculosis, H37RV, 168 h, pH 6.8, read-out: Mtb Glu MITC95.
Experiment [3] has the same test system. Put plainly: microbe, parasite or virus in culture. As to conditions: Mycobacterium tuberculosis, H37RV, 168 h, pH 6.8, read-out: Mtb Cho MITC95.

Converted amounts (≈) assume the structure as drawn. Read-outs that look alike come from different tables or passages of the source.

The IC50 is the midpoint of a concentration-inhibition curve. Turning to `O=C1O[C@@H](CO)CN1c1cc(F)c(N2CCN(C(=O)C3CC3)C3CC32)c(F)c1` (stereo partly drawn) [Example 21, (5R)-3-{4-[5-(cyclopropanecarbonyl)-2,5-diazabicyclo[4.1.0]heptan-2-yl]-3,5-difluorophenyl}-5-(hydroxymethyl)-1,3-oxazolidin-2-one], the IC50 in experiment [1] was above 13 µM. Moreover, the MIC in experiment [2] was found to be 6.3 µM (≈ 2.48 µg/mL); in experiment [3], 3.1 µM (≈ 1.22 µg/mL).

Take `CS(=O)(=O)c1ccc(-c2ccc(N3C[C@H](CO)OC3=O)cc2F)cc1` [Example 1, (5R)-3-[2-fluoro-4′-(methylsulfonyl)biphenyl-4-yl]-5-(hydroxymethyl)-1,3-oxazolidin-2-one]: the IC50 in experiment [1] stood at 7 µM. Moreover, the MIC was determined as 1 µM (≈ 0.365 µg/mL) in experiment [2] and 1.2 µM (≈ 0.438 µg/mL) in experiment [3].

On to `O=C1O[C@@H](CO)CN1c1ccc(-c2ccc(S(=O)(=O)C3CC3)cc2)cc1` [Example 32, (5R)-3-[4′-(cyclopropanesulfonyl)[1,1′-biphenyl]-4-yl]-5-(hydroxymethyl)-1,3-oxazolidin-2-one], for which the IC50 in experiment [1] came to 30 µM. Further, the MIC in experiment [2] and in experiment [3] was 3.1 µM (≈ 1.16 µg/mL) throughout.

Turning to `O=C1O[C@@H](CO)CN1c1cc(F)c(N2CC3CS(=O)(=O)CC3C2)c(F)c1` (stereo partly drawn) [Example 17, 5-{2,6-difluoro-4-[(5R)-5-(hydroxymethyl)-2-oxo-1,3-oxazolidin-3-yl]phenyl}hexahydro-2λ6-thieno[3,4-c]pyrrole-2,2(1H)-dione], in experiment [1], the IC50 is above 100 µM. Further, the figures for the MIC in experiment [2] and in experiment [3] were 2.3 µM (≈ 0.893 µg/mL) and 3.1 µM (≈ 1.2 µg/mL), respectively.

Take `CSc1ccc(-c2ccc(N3C[C@H](CO)OC3=O)cc2F)cc1` [Example 4, (5R)-3-[2-fluoro-4′-(methylsulfanyl)[1,1′-biphenyl]-4-yl]-5-(hydroxymethyl)-1,3-oxazolidin-2-one]: in experiment [1], the IC50 was above 100 µM. The MIC in experiment [2] worked out at 0.21 µM (≈ 0.07 µg/mL); in experiment [3], 0.24 µM (≈ 0.08 µg/mL).

Regarding `Cc1nnc2cc(-c3ccc(N4C[C@H](CO)OC4=O)cc3F)ccn12` [Example 19, (5R)-3-[3-fluoro-4-(3-methyl[1,2,4]triazolo[4,3-a]pyridin-7-yl)phenyl]-5-(hydroxymethyl)-1,3-oxazolidin-2-one], the IC50 in experiment [1] was determined as 18 µM. Besides, the MIC in experiment [2] and in experiment [3] was 1.2 µM (≈ 0.411 µg/mL) in each case.

Take `O=C1O[C@@H](CO)CN1c1ccc(-c2ccc(OCCO)cc2)c(F)c1` [Example 12, (5R)-3-[2-fluoro-4'-(2-hydroxyethoxy)[1,1′-biphenyl]-4-yl]-5-(hydroxymethyl)-1,3-oxazolidin-2-one]: the IC50 in experiment [1] is 19 µM. Further, the MIC was 0.78 µM (≈ 0.271 µg/mL) in experiment [2] and 0.39 µM (≈ 0.135 µg/mL) in experiment [3].
